Like-named read-outs stand apart in the source and are kept apart here.
Assays:
[1] = target: T1, human alpha 7-wt nAChR (Homo sapiens, UniProt P36544); experiment: Patch-clamp current recording (whole-cell voltage-clamp, GH4C1 cells); format: cell-based; parameters: key: Type 0 compounds minimally change the effect size of the current elicited by 1 mM choline.; Type 1 compounds enhance the effect size of the current elicited by 1 mM choline but minimally alter the kinetics of the receptor.; Type 2 compounds enhance the effect size of the current elicited by 1 mM choline while reducing the rate and/or the extent of desensitization.; Type 3 compounds enhance the effect size of the current elicited by 1 mM choline. When tested at higher concentrations up to 10 µM they completely inhibit desensitization; Type 4 compounds allow for an initial desensitization of the receptor followed by a re-opening of the receptor during agonist application; details: current elicited by 1 mM choline
T1 construct: expressed in transfected cells
T1 sequence (P36544 23-502): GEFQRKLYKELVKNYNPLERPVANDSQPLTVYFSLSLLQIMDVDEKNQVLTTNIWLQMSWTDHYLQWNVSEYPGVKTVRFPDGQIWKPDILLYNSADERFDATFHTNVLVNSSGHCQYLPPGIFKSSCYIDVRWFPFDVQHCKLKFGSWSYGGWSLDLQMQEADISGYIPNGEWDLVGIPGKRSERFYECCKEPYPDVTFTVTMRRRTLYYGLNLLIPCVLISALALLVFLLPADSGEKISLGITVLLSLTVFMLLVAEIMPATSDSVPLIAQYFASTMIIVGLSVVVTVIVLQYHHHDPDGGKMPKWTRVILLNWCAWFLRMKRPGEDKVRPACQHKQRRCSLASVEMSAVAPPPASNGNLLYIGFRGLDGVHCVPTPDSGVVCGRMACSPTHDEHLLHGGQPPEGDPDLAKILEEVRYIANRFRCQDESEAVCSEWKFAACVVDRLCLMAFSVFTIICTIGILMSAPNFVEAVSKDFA
Procedure: The compounds of the present invention are classified as type 1-4, based on qualitative kinetic properties, as determined by whole-cell voltage-clamp recordings. This classification is based on the effect of an alpha 7 PAM compound, as described hereinbefore, on the signal elicited by an agonist application. In particular, said agonist is choline at a concentration of 1mM. In a preferred experimental setting, said alpha 7 PAM compound and choline are simultaneously applied to the cell, as described hereinafter. Desensitization is defined as the closure of the receptor upon activation during the application of the agonist in whole-cell voltage-clamp electrophysiology measurements seen as the reduction of the […] current after initial activation by the agonist.
The definition of the PAM types 1-4 is described hereinafter: Type 0 compounds minimally change the effect size of the current elicited by 1 mM choline. Type 1 compounds enhance the effect size of the current elicited by 1 mM choline but minimally alter the kinetics of the receptor. In particular, the rate and the extent of desensitization and of deactivation of the receptor elicited by the agonist is not affected. The compound-modulated response to 1 mM choline, therefore, is close to a linear scaling of the 1 mM choline response in absence of the alpha 7 PAM compound: Type 2 compounds enhance the effect size of the current elicited by 1 mM choline while reducing the rate and/or the extent of desensitization. Deactivation of the receptor is generally unaffected. Type 3 compounds enhance the effect size of the current elicited by 1 mM choline. […] Deactivation of the receptor may be slowed down. Type 4 compounds allow for an initial desensitization of the receptor followed by a re-opening of the receptor during agonist application. At low-potency concentrations of the alpha 7 PAM compound, the agonist-induced activation, which is followed by desensitization, can still be separated from the compound-induced re-opening as an initial inward current-maximum. At higher potency concentrations of the alpha 7 PAM compound, the re-opening occurs faster than the closure due to desensitization so that the initial current-maximum disappears.
A compound was considered to have interesting PAM-like activity when the potentiation of the peak current was at least 200% compared to the control choline response (= 100%). Such compounds are classified as belonging to a particular PAM type in the Experimental Part. Compounds not meeting the condition are not classified as belonging to a particular PAM-type.
The compounds also have a potentiating effect on the response to choline when measured by whole-cell patch clamp electrophysiology in GH4C1 cells stably over-expressing the human wild-type alpha 7 receptor.
Example D.2 : Patch-clamp current recording
Patch-clamp recording from mammalian cells has provided a powerful means of assessing the function of membrane-bound proteins thought to be subunits of ligand-gated ion channels. Activation of such proteins by endogenous or exogenous ligands cause opening of a pore associated with the receptor through which ions flow down their electrochemical gradient. In the case of the human alpha 7-wt nAChR-expressing GH4C1 recombinant cell line the preferential permeability to calcium of this receptor means that calcium flows into the cell upon activation by ACh, choline and other nicotinic ligands giving rise to a calcium current. Since this receptor rapidly desensitizes in the presence of agonist it is important that an application system is used which is capable of very rapid switching of solutions (< 100 ms) to prevent partial or full desensitisation of receptor responses coincident with the time of agonist application. Consequently, a second convenient technique to assess the enhancement of nicotinic efficacy is a patch-clamp recording from human alpha 7-wt nAChR-expressing GH4C1 cells coupled with a rapid-application system. […]

[2] = target: T1, human alpha 7-wt nAChR; experiment: Ca2+ flux imaging (FDSS) (protocol B); format: cell-based; details: for EC50: read-out: pEC50 (converted); for Emax: read-out: % Efficacy
Procedure, shortened: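 Fluo-4AM-loaded (2 µM) cells expressing human α7-wt nAChR in HEPES-HBSS with 5 mM CaCl2. Compounds (0.01–30 µM) were added, possibly 10 min before, with choline 100 µM, and peak fluorescence was monitored by FDSS. Potentiation was relative to the choline response, set as 100%; EC50 came from sigmoidal curves.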

Row | SMILES | PAM type [1] | EC50 ([2]; Ca2+ assay as described in D.1) | Emax [2] | Emax ([2]; Ca2+ assay as described in D.1)
1 | Cc1cc(-c2c(F)cc(N3C[C@@H](C)O[C@@H](C)C3)c(F)c2CNC(=O)c2cc(C)on2)cc(C)n1 [Compound 123] | 0 | 631 nM | – | –
2 | Cc1cc(-c2c(F)cc(N3C[C@@H](C)O[C@@H](C)C3)c(F)c2CNC(=O)CC2CC2)cc(C)n1 [Compound 124] | 2 | 347 nM | – | –
3 | Cc1cc(-c2cc(F)c(N3C[C@@H](C)O[C@@H](C)C3)cc2CNC(=O)CC2CC2)cc(C)n1 [Compound 125] | 2 | 263 nM | 451% | –
4 | Cc1cc(-c2cc(F)c(N3C[C@@H](C)O[C@@H](C)C3)cc2CNC(=O)C2CC2)cc(C)n1 [Compound 126] | 2 | 575 nM | 352% | –
5 | Cc1cc(-c2cc(F)c(N3C[C@@H](C)O[C@@H](C)C3)cc2CNC(=O)c2cc(C)on2)cc(C)n1 [Compound 127] | 1 | 550 nM | 554% | –
6 | Cc1cc(-c2cc(F)c(N3C[C@@H](C)O[C@@H](C)C3)cc2CNC(=O)C(C)C)cc(C)n1 [Compound 128] | 2 | 295 nM | 329% | –
7 | Cc1cc(-c2ccc(N3CC4CCC(C3)O4)cc2CNC(=O)C2CC2)cc(C)n1 [Compound 131] | 2 | 631 nM | 269% | –
8 | Cc1cc(-c2ccc(N3C[C@@H](C)O[C@@H](C)C3)c(CNC(=O)CC3CC3)c2)cc(C)n1 [Compound 132] | 4 | 60.3 nM | – | –
9 | Cc1cc(-c2ccc(N3C[C@@H](C)O[C@@H](C)C3)c(CNC(=O)c3cc(C)on3)c2)cc(C)n1 [Compound 133] | 0 | 50.1 nM | – | –
10 | Cc1cc(-c2ccc(N3C[C@@H](C)O[C@@H](C)C3)c(CNC(=O)C(C)C)c2)cc(C)n1 [Compound 134] | 3 | 91.2 nM | – | –
11 | Cc1cc(-c2ccc(N3C[C@@H](C)O[C@@H](C)C3)c(CNC(=O)c3conc3C)c2)cc(C)n1 [Compound 136] | 3 | 129 nM | – | –
12 | CC(C)C(=O)NCc1cc(N2CCOCC2)ccc1-c1ccncc1 [Compound 137] | 0 | – | – | 528%

From patent EP2678315B1, “(Pyridin-4-yl)benzylamides as allosteric modulators of alpha 7 nAChR” (Janssen Pharmaceutica, N.V., priority 2011, dated 2012)
